In the NIST ThermoML archive (doi:10.1016/j.fluid.2016.02.011):

Test: heat capacity at constant pressure per volume; xn = mol fraction of the nth substance listed
Details: 102.6 kPa, Liquid, DSC, Micro DSC III, x2 = 0.048

Brc1ccccc1 [bromobenzene] + CCCCCC[n+]1ccn(C)c1.O=S(=O)([N-]S(=O)(=O)C(F)(F)F)C(F)(F)F
Details | heat capacity [J/K/m3]
287.65 K | 1529000
287.9 K | 1529000
288.19 K | 1529000
288.46 K | 1529000
288.75 K | 1530000
289.02 K | 1531000
289.31 K | 1531000
289.59 K | 1531000
289.87 K | 1532000
290.14 K | 1533000
290.43 K | 1533000
290.74 K | 1533000
290.98 K | 1533000
291.26 K | 1534000
291.54 K | 1535000
291.82 K | 1537000
292.1 K | 1539000
292.38 K | 1541000
292.7 K | 1546000
292.8 K | 1536000
292.98 K | 1534000
293.27 K | 1533000
293.53 K | 1533000
293.82 K | 1533000
294.09 K | 1533000
294.37 K | 1533000
294.66 K | 1533000
294.94 K | 1533000
295.22 K | 1534000
295.5 K | 1534000
295.78 K | 1534000
296.06 K | 1534000
296.34 K | 1534000
296.62 K | 1534000
296.9 K | 1534000
297.18 K | 1534000
297.46 K | 1535000
297.74 K | 1535000
298.02 K | 1536000
298.3 K | 1536000
298.58 K | 1536000
298.86 K | 1536000
299.14 K | 1536000
299.42 K | 1537000
299.7 K | 1537000
299.98 K | 1537000
300.26 K | 1537000
300.54 K | 1538000
300.82 K | 1538000
301.1 K | 1538000
301.33 K | 1538000
301.6 K | 1538000
302.37 K | 1539000
302.98 K | 1539000
303.6 K | 1539000
304.21 K | 1540000
304.82 K | 1540000
305.43 K | 1541000
306.05 K | 1541000
306.66 K | 1541000
307.27 K | 1542000
307.88 K | 1542000
308.5 K | 1542000
309.11 K | 1543000
309.72 K | 1543000
310.34 K | 1544000
310.95 K | 1544000
311.56 K | 1545000
312.18 K | 1545000
312.79 K | 1545000
313.4 K | 1546000
314.01 K | 1546000
314.63 K | 1547000
315.24 K | 1547000
315.85 K | 1548000
316.46 K | 1548000
317.08 K | 1548000
317.69 K | 1549000
318.3 K | 1549000
318.92 K | 1550000
319.53 K | 1550000
320.14 K | 1551000
320.45 K | 1551000
320.75 K | 1551000
321.98 K | 1552000
322.59 K | 1552000
323.21 K | 1553000
323.82 K | 1553000
324.45 K | 1553000
325.05 K | 1554000
325.66 K | 1554000
326.27 K | 1555000
326.88 K | 1555000
327.5 K | 1556000
328.11 K | 1556000
328.72 K | 1557000
329.33 K | 1557000
329.95 K | 1558000
330.56 K | 1558000
331.02 K | 1559000
